# In patent publication US12459922B2 (Gilead Sciences, Inc., priority 2022, dated 2025):
# System: endogenous cellular STAT1 (phosphorylated at Tyr701) in NCI-H1373 cells
# Assay: Phospho-STAT1 (Tyr701) LANCE Ultra TR-FRET Detection Assay
# Format: cell-based
# Settings: Homo sapiens, NCI-H1373, 48 h, phospho-STAT1 (Tyr701) induction, read-out: NH1373 pSTAT1 EC50
row,Compound,EC50 [nM]
1,"C[C@@H](CCCn1ccc2cc(-c3nccc(N)n3)c(F)cc2c1=O)Nc1cn[nH]c(=O)c1C(F)(F)F [Example 198, (S)-6-(4-aminopyrimidin-2-yl)-7-fluoro-2-(4-((6-oxo-5-(trifluoromethyl)-1,6-dihydropyridazin-4-yl)amino)pentyl)isoquinolin-1(2H)-one]",276
2,"C[C@@H](CCCn1ccc2cc(-c3ncc(N)cn3)c(F)cc2c1=O)Nc1cn[nH]c(=O)c1C(F)(F)F [Example 199, (S)-6-(5-aminopyrimidin-2-yl)-7-fluoro-2-(4-((6-oxo-5-(trifluoromethyl)-1,6-dihydropyridazin-4-yl)amino)pentyl)isoquinolin-1(2H)-one]",317
3,COc1cnc(-c2cc3ccn(CCC[C@H](C)Nc4cn[nH]c(=O)c4C(F)(F)F)c(=O)c3cc2F)nc1N1CC(O)C1 [Example 207],157
4,COc1cnc(-c2cc3ncn(CCC[C@H](C)Nc4cn[nH]c(=O)c4C(F)(F)F)c(=O)c3cc2F)nc1N1CC(O)C1 [Example 208],206
5,COc1cnc(-c2cc3ccn(CCC[C@H](C)Nc4cn[nH]c(=O)c4C(F)(F)F)c(=O)c3cc2F)nc1N1CC(F)(F)C1 [Example 210],132
6,"COc1cnc(-c2cc3ccn(CCC[C@H](C)Nc4cn[nH]c(=O)c4C(F)(F)F)c(=O)c3cc2F)nc1NC1COC1 [Example 217, (S)-7-fluoro-6-(5-methoxy-4-(oxetan-3-ylamino)pyrimidin-2-yl)-2-(4-((6-oxo-5-(trifluoromethyl)-1,6-dihydropyridazin-4-yl)amino)pentyl)isoquinolin-1(2H)-one]",1580
7,"COc1cnc(-c2cc3ccn(CCC[C@H](C)Nc4cn[nH]c(=O)c4C(F)(F)F)c(=O)c3cc2F)nc1NCCO [Example 218, (S)-7-fluoro-6-(4-((2-hydroxyethyl)amino)-5-methoxypyrimidin-2-yl)-2-(4-((6-oxo-5-(trifluoromethyl)-1,6-dihydropyridazin-4-yl)amino)pentyl)isoquinolin-1(2H)-one]",1100
8,"COc1cnc(-c2cc3ccn(CCC[C@H](C)Nc4cn[nH]c(=O)c4C(F)(F)F)c(=O)c3cc2F)nc1NC1(C(F)F)CC1 [Example 219, (S)-6-(4-((1-(difluoromethyl)cyclopropyl)amino)-5-methoxypyrimidin-2-yl)-7-fluoro-2-(4-((6-oxo-5-(trifluoromethyl)-1,6-dihydropyridazin-4-yl)amino)pentyl)isoquinolin-1(2H)-one]",430
9,"COc1cnc(-c2cc3ncn(CCC[C@H](C)Nc4cn[nH]c(=O)c4C(F)(F)F)c(=O)c3cc2F)nc1NC1CC1 [Example 220, (S)-7-(4-(cyclopropylamino)-5-methoxypyrimidin-2-yl)-6-fluoro-3-(4-((6-oxo-5-(trifluoromethyl)-1,6-dihydropyridazin-4-yl)amino)pentyl)quinazolin-4(3H)-one]",195
10,"C[C@@H](CCCn1ccc2cc(-c3ncc(C(F)F)c(NCCO)n3)c(F)cc2c1=O)Nc1cn[nH]c(=O)c1C(F)(F)F [Example 222, (S)-6-(5-(difluoromethyl)-4-((2-hydroxyethyl)amino)pyrimidin-2-yl)-7-fluoro-2-(4-((6-oxo-5-(trifluoromethyl)-1,6-dihydropyridazin-4-yl)amino)pentyl)isoquinolin-1(2H)-one]",258
11,"C[C@@H](CCCn1ccc2cc(-c3ncc4c(n3)CS(=O)(=O)C4)c(F)cc2c1=O)Nc1cn[nH]c(=O)c1C(F)(F)F [Example 225, (S)-6-(6,6-dioxido-5,7-dihydrothieno[3,4-d]pyrimidin-2-yl)-7-fluoro-2-(4-((6-oxo-5-(trifluoromethyl)-1,6-dihydropyridazin-4-yl)amino)pentyl)isoquinolin-1(2H)-one]",957
12,"O=c1[nH]ncc(N[C@H]2CCC[C@H](Cn3ccc4cc(-c5ncc(C(F)(F)F)cn5)c(F)cc4c3=O)C2)c1C(F)(F)F [Example 228, 7-fluoro-2-(((1S,3S)-3-((6-oxo-5-(trifluoromethyl)-1,6-dihydropyridazin-4-yl)amino)cyclohexyl)methyl)-6-(5-(trifluoromethyl)pyrimidin-2-yl)isoquinolin-1(2H)-one]",10000
13,"Nc1nc(-c2cc3ccn(C[C@@H]4COC[C@H](Nc5cn[nH]c(=O)c5C(F)(F)F)C4)c(=O)c3cc2F)ncc1C(F)(F)F [Example 230, 6-(4-amino-5-(trifluoromethyl)pyrimidin-2-yl)-7-fluoro-2-(((3R,5R)-5-((6-oxo-5-(trifluoromethyl)-1,6-dihydropyridazin-4-yl)amino)tetrahydro-2H-pyran-3-yl)methyl)isoquinolin-1(2H)-one]",115

# Molecules with a lower EC50, results first:
row,EC50 [nM],Compound
1,29.1,"C[C@@H](CCCn1cnc2cc(-c3ncc(Cl)cn3)c(F)cc2c1=O)Nc1cn[nH]c(=O)c1C(F)(F)F [Example 200, (S)-7-(5-chloropyrimidin-2-yl)-6-fluoro-3-(4-((6-oxo-5-(trifluoromethyl)-1,6-dihydropyridazin-4-yl)amino)pentyl)quinazolin-4(3H)-one]"
2,4.03,"C[C@@H](CCCn1cnc2cc(-c3ncc(C(F)(F)F)c(N4CCOCC4)n3)c(F)cc2c1=O)Nc1cn[nH]c(=O)c1C(F)(F)F [Example 201, (S)-6-fluoro-7-(4-morpholino-5-(trifluoromethyl)pyrimidin-2-yl)-3-(4-((6-oxo-5-(trifluoromethyl)-1,6-dihydropyridazin-4-yl)amino)pentyl)quinazolin-4(3H)-one]"
3,1.84,"C[C@@H](CCCn1ccc2cc(-c3ncc(Cl)c(N)n3)c(F)cc2c1=O)Nc1cn[nH]c(=O)c1C(F)(F)F [Example 202, (S)-6-(4-amino-5-chloropyrimidin-2-yl)-7-fluoro-2-(4-((6-oxo-5-(trifluoromethyl)-1,6-dihydropyridazin-4-yl)amino)pentyl)isoquinolin-1(2H)-one]"
4,45.1,C[C@@H](CCCn1cnc2cc(-c3cc4c(cn3)C(F)(F)CC4)c(F)cc2c1=O)Nc1cn[nH]c(=O)c1C(F)(F)F [Example 204]
5,75.8,COc1cnc(-c2cc3ccn(CCC[C@H](C)Nc4cn[nH]c(=O)c4C(F)(F)F)c(=O)c3cc2F)nc1N1CC2(COC2)C1 [Example 205]
6,41.2,COc1cnc(-c2cc3ncn(CCC[C@H](C)Nc4cn[nH]c(=O)c4C(F)(F)F)c(=O)c3cc2F)nc1N1CC(C#N)C1 [Example 209]
7,28.3,COc1cnc(-c2cc3ncn(CCC[C@H](C)Nc4cn[nH]c(=O)c4C(F)(F)F)c(=O)c3cc2F)nc1N1CC(F)(F)C1 [Example 211]
8,36.6,C[C@@H](CCCn1cnc2cc(-c3ccc(C(F)(F)F)c(N)n3)c(F)cc2c1=O)Nc1cn[nH]c(=O)c1C(F)(F)F [Example 212]
9,11.5,C[C@@H](CCCn1ccc2cc(-c3ccc(C(F)(F)F)c(N)n3)c(F)cc2c1=O)Nc1cn[nH]c(=O)c1C(F)(F)F [Example 213]
10,17.9,CNc1nc(-c2cc3ccn(CCC[C@H](C)Nc4cn[nH]c(=O)c4C(F)(F)F)c(=O)c3cc2F)ncc1OC [Example 214]
11,36.1,"CCNc1nc(-c2cc3ccn(CCC[C@H](C)Nc4cn[nH]c(=O)c4C(F)(F)F)c(=O)c3cc2F)ncc1OC [Example 215, (S)-6-(4-(ethylamino)-5-methoxypyrimidin-2-yl)-7-fluoro-2-(4-((6-oxo-5-(trifluoromethyl)-1,6-dihydropyridazin-4-yl)amino)pentyl)isoquinolin-1(2H)-one]"
12,39.3,"COc1cnc(-c2cc3ccn(CCC[C@H](C)Nc4cn[nH]c(=O)c4C(F)(F)F)c(=O)c3cc2F)nc1NC1CC1 [Example 216, (S)-6-(4-(cyclopropylamino)-5-methoxypyrimidin-2-yl)-7-fluoro-2-(4-((6-oxo-5-(trifluoromethyl)-1,6-dihydropyridazin-4-yl)amino)pentyl)isoquinolin-1(2H)-one]"
13,15.3,"C[C@@H](CCCn1ccc2cc(-c3ncc(C(F)F)c(NC4CC4)n3)c(F)cc2c1=O)Nc1cn[nH]c(=O)c1C(F)(F)F [Example 221, (S)-6-(4-(cyclopropylamino)-5-(difluoromethyl)pyrimidin-2-yl)-7-fluoro-2-(4-((6-oxo-5-(trifluoromethyl)-1,6-dihydropyridazin-4-yl)amino)pentyl)isoquinolin-1(2H)-one]"
14,33.3,"C[C@@H](CCCn1ccc2cc(-c3ncc(C(F)F)c(N[C@@H]4C[C@@H]4F)n3)c(F)cc2c1=O)Nc1cn[nH]c(=O)c1C(F)(F)F [Example 223, 6-(5-(difluoromethyl)-4-(((1R,2S)-2-fluorocyclopropyl)amino)pyrimidin-2-yl)-7-fluoro-2-((S)-4-((6-oxo-5-(trifluoromethyl)-1,6-dihydropyridazin-4-yl)amino)pentyl)isoquinolin-1(2H)-one]"
15,6.14,"C[C@@H](CCCn1ccc2cc(-c3ccc(C(F)F)c(N)n3)c(F)cc2c1=O)Nc1cn[nH]c(=O)c1C(F)(F)F [Example 224, (S)-6-(6-amino-5-(difluoromethyl)pyridin-2-yl)-7-fluoro-2-(4-((6-oxo-5-(trifluoromethyl)-1,6-dihydropyridazin-4-yl)amino)pentyl)isoquinolin-1(2H)-one]"
16,5.34,"O=c1[nH]ncc(N[C@H]2CCC[C@@H](Cn3ccc4cc(-c5ncc(C(F)F)cn5)c(F)cc4c3=O)C2)c1C(F)(F)F [Example 226, 6-[5-(difluoromethyl)pyrimidin-2-yl]-7-fluoro-2-[[(1R,3S)-3-[[6-oxo-5-(trifluoromethyl)-1H-pyridazin-4-yl]amino]cyclohexyl]methyl]isoquinolin-1-one]"
17,15.7,"Nc1nc(-c2cc3ccn(C[C@H]4CCC[C@H](Nc5cn[nH]c(=O)c5C(F)(F)F)C4)c(=O)c3cc2F)ncc1C(F)(F)F [Example 227, 6-(4-amino-5-(trifluoromethyl)pyrimidin-2-yl)-7-fluoro-2-(((1S,3S)-3-((6-oxo-5-(trifluoromethyl)-1,6-dihydropyridazin-4-yl)amino)cyclohexyl)methyl)isoquinolin-1(2H)-one]"
18,72.5,"O=c1[nH]ncc(N[C@H]2COC[C@@H](Cn3ccc4cc(-c5ncc(C(F)(F)F)cn5)c(F)cc4c3=O)C2)c1C(F)(F)F [Example 229, 7-fluoro-2-(((3R,5R)-5-((6-oxo-5-(trifluoromethyl)-1,6-dihydropyridazin-4-yl)amino)tetrahydro-2H-pyran-3-yl)methyl)-6-(5-(trifluoromethyl)pyrimidin-2-yl)isoquinolin-1(2H)-one]"
